Experimental data reported in patent US20240207212A1, “METHODS AND COMPOSITIONS FOR TREATING INFLAMMATION” (priority 2017, published 2024).

How the values were obtained:
P-gp = P-gp (Homo sapiens, UniProt P08183); experiment: Semi-quantitative MS analysis of enriched AMEND preparations from control and P-gp knockdown T84 cells; conditions: for Average (relative abundance, normalized to anandamide-d8 standard): anandamide-d8 standard at 1 μg/μL
Text: Generation of P-gp knockdown T84 cell lines. Purified DNA containing shRNA constructs targeting the mdr1a gene in a pLK0.1 plasmid background was obtained from the UMass RNAi core. Constructs were as follows: B4 (Clone ID: TRCN0000059683), B5 (Clone ID: TRCN0000059684), B6 (Clone ID: TRCN0000059685), B7 (Clone ID: TRCN0000059686), B8 (Clone ID: TRCN0000059687). Lentiviruses were produced by transfecting packaging cells (293T) with psPAX2, pMD.2G, and pLK0.1 plasmid constructs, using Trans-IT-LT1 lipid (Mirus Bio). After 48 hours, lentiviral supernatants were harvested, combined with 8 μg/mL polybrene (Sigma-Aldrich) and applied to T84 cells in 20% confluent monolayers. This process was repeated 24 hours later, and 48 hours following the second transfection, resistant cells were selected with 5 μg/mL puromycin.
Production of enriched AMEND. T84 cells were grown as confluent monolayers in 162 cm^2 flasks and equilibrated in Hanks Buffered Saline Solution with Mg^2+/Ca^2+ (HBSS+/+) at 37° C., 5% CO2. […] Cell supernatants collected over the course of five hours were pooled from 30 flasks, lyophilized, resuspended in water and ultrafiltered through Amicon 1,000-Da cutoff membrane (Millipore) with N2 positive pressure. Samples were captured on a C18 Bakerbond® SepPak column, washed with water and hexane, eluted with methanol, dried under N2 gas and stored at −80° C. Before use in migration experiments, samples were resuspended in HBSS+/+as needed. For screening in the DiscoveRx GPCR β-arrestin activity assay (Fremont, CA), samples were resuspended in PBS to provide a 1000× solution for screening.
LC/MS analysis of AMEND. MeOH-eluted preparations as above were dried under a stream of N2 (g), re-suspended in MeOH/buffer and separated by HPLC using a Vydac (Hesperia, CA) C18 (10 um; 300 Å) semi-preparative column ([…]). Active AMEND fractions were characterized by HPLC/Mass spectrometry (Genesis C18 (4 um, 120 Å) analytical HPLC column (4.6×150 mm) equilibrated with 5 mM triethylamine acetic acid (pH 7.2) with the effluent analyzed by using a Finnigan LCQDeca electrospray mass spectrometer.
Selected samples were analyzed for high mass accuracy determination and solubilized in 50:50 acetonitrile:H2O with 0.2% formic acid. A MAXIS-HD ultra-high resolution quadrupole time-of-flight (UHR-ESI-QTOF) mass spectrometer (Bruker Daltonik GmbH, Bremen, Germany) was used; this was coupled to a syringe driver (Hamilton, Bonaduz, Switzerland) with the sample solution being infused at a rate of 3 μL/min.
Nitrogen acted as the nebulizing gas, applied at a pressure of 2 bar. The drying gas was also nitrogen, supplied at a flow rate of 8 L/min and a temperature of 200° C. Positive ion mode was used with a corresponding capillary voltage of −4500V. Only full scan data was acquired. For each batch of samples a solution of 5 mM sodium formate clusters was also analysed. This acted as an external data file calibrant over the mass range 75-1000 m/z. The recalibrated detected mass and isotope pattern were used in the FindFormula tool to generate a list of potential theoretical formulae within 2 mDa of the detected mass. The detected isotope pattern was used to sort this list.
Data acquisition and automated processing was controlled via Compass OpenAccess 1.7 software (Bruker Daltonik GmbH, Bremen, Germany), and data processing was carried out using DataAnalysis 3.4 (Bruker Daltonik GmbH, Bremen, Germany). At each step care was taken to avoid sample degradation and oxidation by maintaining them on ice and under N2 gas as much as possible. Relative quantification by ion intensities was performed by the summation of intensities for protonated and sodiated ions to compensate for possible variation in adduct formation due to varying biological sodium levels.
With respect to Table 2, semi-quantitative MS analysis was performed to compare enriched AMEND preparations from control T84 cells to those with shRNA-mediated P-gp knockdown (B4-mdr1a and B5-mdr1a).

[1] = test system: HXA3-induced neutrophil migration; experiment: 96-well neutrophil migration assay (modified Boyden chamber, cell-free); format: cell-based, human; conditions: for AMEND inhibitory activity of purified compounds in the cell-free migration assay: FIG. 2F
Procedure: Supernatants from T84 epithelial monolayers were enriched for lipids and tested for ability to inhibit HXA3-induced migration in a 96-well modified Boyden chamber assay (FIG. 2A). In order to compare across experiments with different donors, migration values within individual experiments were normalized to enriched HXA3 with vehicle treatment. […] FIG. 2C performed as in FIG. 2A, but prior to use in the migration assays enriched T84 supernatants were pretreated with FAAH or MAGL at 37 °C for 30 min. […] Commercially available endocannabinoids and related compounds were tested in the 96 well migration assay (FIG. 2F). Compounds were used at the highest concentration at which they were soluble in PBS. Data are mean+/−SEM of at least 3 independent experiments, *=p<0.05 and **=p<0.01 by one-way ANOVA.
96-well neutrophil migration.
Purified compounds used in migration assays.

MRP1 = MRP1 (Homo sapiens, UniProt P33527); conditions: low affinity substrate of MRP1; cited from earlier work
[2] = test system: neutrophil migration across NIH-H292 cells infected with Streptococcus pneumoniae; experiment: In vitro PMN transepithelial migration across H292 monolayers infected with S. pneumoniae; format: cell-based, human; conditions: 100 μM pretreatment before infection with 10 MOI Streptococcus pneumoniae, vs mock-treated (FIG. 19A, FIG. 20D)
Procedure: S. pneumoniae can induce PMN transepithelial migration across model lung epithelia where a well-established in vitro model system is utilized. Briefly, H292 cells are seeded on permeable supports to form a barrier, thereby mimicking the in vivo architecture. Freshly isolated human neutrophils are then applied to the basolateral chamber of the transwell, allowing the neutrophils to transverse the epithelial layer in response to chemoattractants released by the epithelium.
Using an in vitro model of neutrophil (PMN) migration, we examined the results of MRP2 inhibition. NIH-H292 cells were incubated with 100 μM of the MRP2 inhibitor Probenecid (horizontal striped) or mock treated with PBS (black) before infection. Both control and probenecid treated cells were then washed and infected with 10 MOI Streptococcus pneumoniae. Neutrophils were placed in the basolateral chamber of the membrane construct and allowed to migrate post-infection. Neutrophils that have traveled to the apical chamber were quantified with a modified myeloperoxidase assay against a standard number of neutrophils. Shown in FIG. 20D is a representative data set that has been repeated at least 3 times. […] Uninfected cells are represented in white, labeled “Buffer”. Statics performed using unpaired T-test.

[3] = test system: C57BL/6 mice infected with Streptococcus pneumoniae; experiment: S. pneumoniae lung infection of mice with MRP2 inhibition; format: in vivo
Procedure: FIGS. 19A-19E. MRP2 inhibition in vivo. Using an in vitro model of neutrophil migration, we examined the results of MRP2 inhibition. MRP2 inhibition via Probenecid treatment results in a reduction of neutrophils migrating in a basolateral-to-apical direction (FIG. 19A). Following this in vitro result, C57/B16 mice were treated with either PBS or Probenecid and subsequently infected with Streptococcus pneumoniae. Mice treated with probenecid had fewer Cd11b-positive/Ly6g-positive cells (neutrophils) in the bronchoalveolar lavage (BAL) isolated from infected lungs (FIG. 19B).
S. pneumoniae infection under conditions where MRP2 function was impeded with probenecid was examined. C57BL/6 mice were infected with between 1×10^5 and 3×10^5 bacteria via the trachea, leading to lobar pneumonia and progressing to bacteremia and sepsis, after which the mice succumb to infection. Probenecid was delivered 3 hours prior to infection as a primer and again at 3-hours post-infection.

[4] = B4-mdr1a P-gp knockdown T84 cells
[5] = B4-mdr1a P-gp knockdown vs control T84 cells
[6] = B5-mdr1a P-gp knockdown T84 cells
[7] = B5-mdr1a P-gp knockdown vs control T84 cells
[8] = used at 0.01 mg/mL (highest concentration soluble in PBS, diluted 1:10)

Chain of P-gp (P08183 whole entry): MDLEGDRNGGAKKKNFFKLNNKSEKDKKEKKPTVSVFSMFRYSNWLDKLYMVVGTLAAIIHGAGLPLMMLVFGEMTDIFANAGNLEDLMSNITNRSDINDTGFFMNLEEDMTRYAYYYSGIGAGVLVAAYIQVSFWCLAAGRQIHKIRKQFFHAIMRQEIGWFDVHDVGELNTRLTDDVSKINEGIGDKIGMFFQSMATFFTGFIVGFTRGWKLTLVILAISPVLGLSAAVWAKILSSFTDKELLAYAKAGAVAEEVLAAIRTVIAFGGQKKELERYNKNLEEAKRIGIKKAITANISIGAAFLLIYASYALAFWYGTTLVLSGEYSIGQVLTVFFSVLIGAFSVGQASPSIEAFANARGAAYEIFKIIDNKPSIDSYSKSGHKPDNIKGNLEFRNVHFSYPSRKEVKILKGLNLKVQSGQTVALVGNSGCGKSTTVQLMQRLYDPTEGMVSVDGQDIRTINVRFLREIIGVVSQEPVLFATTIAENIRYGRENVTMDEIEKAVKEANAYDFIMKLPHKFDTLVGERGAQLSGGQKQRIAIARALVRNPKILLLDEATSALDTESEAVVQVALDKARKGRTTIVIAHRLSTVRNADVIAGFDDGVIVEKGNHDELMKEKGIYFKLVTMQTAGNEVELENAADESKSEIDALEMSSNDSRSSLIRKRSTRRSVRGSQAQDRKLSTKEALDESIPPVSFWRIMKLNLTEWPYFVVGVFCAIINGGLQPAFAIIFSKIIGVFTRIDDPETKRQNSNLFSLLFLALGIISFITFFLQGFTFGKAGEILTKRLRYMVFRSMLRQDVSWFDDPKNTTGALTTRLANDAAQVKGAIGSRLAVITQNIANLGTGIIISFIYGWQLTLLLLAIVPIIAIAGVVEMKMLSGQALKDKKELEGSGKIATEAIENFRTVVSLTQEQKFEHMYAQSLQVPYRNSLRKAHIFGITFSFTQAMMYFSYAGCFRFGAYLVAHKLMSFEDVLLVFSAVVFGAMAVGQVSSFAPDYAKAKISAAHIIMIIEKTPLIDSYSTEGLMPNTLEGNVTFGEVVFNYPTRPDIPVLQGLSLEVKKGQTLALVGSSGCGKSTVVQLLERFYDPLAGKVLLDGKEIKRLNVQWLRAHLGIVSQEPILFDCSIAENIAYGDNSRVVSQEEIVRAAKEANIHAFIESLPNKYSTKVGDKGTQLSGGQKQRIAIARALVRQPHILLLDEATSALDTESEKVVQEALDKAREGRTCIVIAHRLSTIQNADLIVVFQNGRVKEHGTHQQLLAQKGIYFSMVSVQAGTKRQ
Chain of MRP1 (P33527 whole entry): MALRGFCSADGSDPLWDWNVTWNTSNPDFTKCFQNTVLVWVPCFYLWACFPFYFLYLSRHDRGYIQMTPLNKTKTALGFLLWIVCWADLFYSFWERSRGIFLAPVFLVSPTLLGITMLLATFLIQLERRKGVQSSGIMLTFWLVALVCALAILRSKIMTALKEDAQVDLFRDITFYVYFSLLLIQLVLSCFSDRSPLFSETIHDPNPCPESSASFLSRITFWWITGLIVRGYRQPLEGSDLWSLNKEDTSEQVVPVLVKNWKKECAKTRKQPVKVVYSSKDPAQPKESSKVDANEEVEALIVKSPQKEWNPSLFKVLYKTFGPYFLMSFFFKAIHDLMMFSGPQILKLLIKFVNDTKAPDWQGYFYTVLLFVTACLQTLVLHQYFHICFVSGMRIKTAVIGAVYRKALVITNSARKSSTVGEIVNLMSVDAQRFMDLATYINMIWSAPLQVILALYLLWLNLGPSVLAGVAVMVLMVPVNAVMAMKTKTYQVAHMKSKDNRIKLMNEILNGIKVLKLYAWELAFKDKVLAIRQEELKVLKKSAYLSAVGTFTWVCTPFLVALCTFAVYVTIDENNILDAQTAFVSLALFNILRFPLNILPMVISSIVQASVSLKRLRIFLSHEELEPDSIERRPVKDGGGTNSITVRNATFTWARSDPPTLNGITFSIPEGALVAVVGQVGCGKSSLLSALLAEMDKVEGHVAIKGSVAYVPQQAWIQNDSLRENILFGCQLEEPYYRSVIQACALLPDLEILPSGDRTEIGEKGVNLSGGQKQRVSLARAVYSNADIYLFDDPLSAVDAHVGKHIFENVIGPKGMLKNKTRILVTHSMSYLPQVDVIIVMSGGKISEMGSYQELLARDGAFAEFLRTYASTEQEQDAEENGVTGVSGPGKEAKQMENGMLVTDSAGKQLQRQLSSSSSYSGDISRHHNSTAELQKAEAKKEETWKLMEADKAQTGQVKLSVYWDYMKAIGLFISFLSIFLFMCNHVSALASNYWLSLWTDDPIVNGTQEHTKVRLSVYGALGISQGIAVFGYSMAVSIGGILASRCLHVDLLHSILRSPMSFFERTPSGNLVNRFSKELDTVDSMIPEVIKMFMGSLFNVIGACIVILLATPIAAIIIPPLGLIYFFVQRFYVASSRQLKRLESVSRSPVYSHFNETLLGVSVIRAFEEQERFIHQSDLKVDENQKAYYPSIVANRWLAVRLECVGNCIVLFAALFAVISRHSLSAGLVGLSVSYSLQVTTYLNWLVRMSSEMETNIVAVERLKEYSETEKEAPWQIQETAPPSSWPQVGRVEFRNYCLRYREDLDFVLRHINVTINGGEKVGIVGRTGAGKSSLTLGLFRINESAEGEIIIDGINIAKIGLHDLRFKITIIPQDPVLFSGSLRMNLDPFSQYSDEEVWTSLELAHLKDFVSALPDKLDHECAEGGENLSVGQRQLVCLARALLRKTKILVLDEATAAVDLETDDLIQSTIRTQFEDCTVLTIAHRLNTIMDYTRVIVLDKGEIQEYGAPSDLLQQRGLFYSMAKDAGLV

CCCCC/C=C\C/C=C\C/C=C\C/C=C\CCCC(=O)OC(CO)CO [2-Arachidonoyl Glycerol (2-AG), 2-arachidonoyl glycerol]
Average (relative abundance, normalized to anandamide-d8 standard) (P-gp; [4]): 32.17
% of Control (P-gp; [5]): 91%
Average (relative abundance, normalized to anandamide-d8 standard) (P-gp; [6]): 29.47
% of Control (P-gp; [7]): 83%
Average (relative abundance, normalized to anandamide-d8 standard) (P-gp; control T84 cells): 35.53

CCCCC/C=C\C/C=C\C/C=C\C/C=C\CCCC(=O)NCCO [Anandamide (AEA), Arachidonoyl ethanolamide]
AMEND inhibitory activity of purified compounds in the cell-free migration assay [1, 8]: significant inhibitory activity

N[C@@H](CCC(=O)N[C@@H](CS)C(=O)NCC(=O)O)C(=O)O [Glutathione]
Km (MRP1): 1000 to 5000 µM

CCCCC[C@H](O)/C=C/C=C\C=C\C=C\[C@@H](O)[C@@H](O)CCCC(=O)O [Lipoxin A4]
inhibitory activity on HXA3-induced migration after treatment with FAAH ([1]; pretreated with FAAH at 37°C for 30 min, Lipoxin used at 10 nM (FIG. 2C, FIG. 8)): not sensitive
inhibitory activity on HXA3-induced migration after treatment with MAGL ([1]; pretreated with MAGL at 37°C for 30 min, Lipoxin used at 10 nM (FIG. 2C, FIG. 8)): not sensitive

CCCCC/C=C\C/C=C\C/C=C\C/C=C\CCCC(=O)NCCc1ccc(O)c(O)c1 [N-Arachidonoyl Dopamine]
Average (relative abundance, normalized to anandamide-d8 standard) (P-gp; [4]): 1.97
Average (relative abundance, normalized to anandamide-d8 standard) (P-gp; [6]): 1.90
Average (relative abundance, normalized to anandamide-d8 standard) (P-gp; control T84 cells): 0.00

CCCCC/C=C\C/C=C\C/C=C\C/C=C\CCCCOC(CO)CO [Noladin ether]
Average (relative abundance, normalized to anandamide-d8 standard) (P-gp; [4]): 154.03
% of Control (P-gp; [5]): 461%
Average (relative abundance, normalized to anandamide-d8 standard) (P-gp; [6]): 56.23
% of Control (P-gp; [7]): 168%
Average (relative abundance, normalized to anandamide-d8 standard) (P-gp; control T84 cells): 33.43

CCCCCCCC/C=C\CCCCCCCC(=O)NCCO [Oleoyl ethanolamide (OEA), Oleoyl ethanolamide]
AMEND inhibitory activity of purified compounds in the cell-free migration assay [1, 8]: significant inhibitory activity

CCCN(CCC)S(=O)(=O)c1ccc(C(=O)O)cc1 [Probenecid]
number of neutrophils migrating basolateral-to-apical across infected H292 monolayers [2]: effectively reduced
number of neutrophils migrating basolateral-to-apical across infected H292 monolayers ([2]; listed as probenecid): significantly fewer
reduction in bacteremia ([3]; 48 post-infection, no longer statistically significant (FIG. 19C)): 10 fold
number of bacteria in the lung ([3]; 48 hours post-infection): the same
other granulocytes in the mouse lung ([3]; Cd11b+/Cd45+/Ly6g- granulocytes (FIG. 19D)): no reduction
lower CFU in the blood of mice that developed bacteremia, compared to PBS-treated mice ([3]; D1 post-infection (FIG. 19C)): approximately 10 fold
cases of bacteremia ([3]; D1 post-infection, vs PBS-treated mice (FIG. 19C)): fewer cases
fewer neutrophils in bronchoalveolar lavage fluid (BALF) than PBS-treated mice ([3]; Day 1 post-infection, delivered 3 hours prior to and 3 hours post-infection (FIG. 19B)): 35%
difference in the bacterial CFU in mice that did not develop bacteremia ([3]; failed to reach statistical significance (FIG. 19E)): approximately 2 fold

CC/C=C\C/C=C\C/C=C\CCCCCCCC(=O)NCCO [α-LEA, α-Linolenoyl Ethanolamide]
AMEND inhibitory activity of purified compounds in the cell-free migration assay ([1]; used at 0.005 mg/mL (highest concentration soluble in PBS, diluted 1:10)): significant inhibitory activity
